These are literature values, as cited in patent US20250381170A1, “Low Concentration Delivery of an Ergoline Derivative for Treatment of a Headache” (Relevale, Inc., priority 2021, published 2025).

Among the targets are 5-HT1Dα receptors (Homo sapiens, UniProt P28221); 5-HT1Dβ receptors (Homo sapiens, UniProt P28222); dopamine D2L receptors (Homo sapiens, UniProt P14416); dopamine D3 receptors (Homo sapiens, UniProt P35462).
Data set [1] addresses T1, serotonin 5-HT1A receptors (Homo sapiens, UniProt P08908).
T1 sequence (P08908 1-422): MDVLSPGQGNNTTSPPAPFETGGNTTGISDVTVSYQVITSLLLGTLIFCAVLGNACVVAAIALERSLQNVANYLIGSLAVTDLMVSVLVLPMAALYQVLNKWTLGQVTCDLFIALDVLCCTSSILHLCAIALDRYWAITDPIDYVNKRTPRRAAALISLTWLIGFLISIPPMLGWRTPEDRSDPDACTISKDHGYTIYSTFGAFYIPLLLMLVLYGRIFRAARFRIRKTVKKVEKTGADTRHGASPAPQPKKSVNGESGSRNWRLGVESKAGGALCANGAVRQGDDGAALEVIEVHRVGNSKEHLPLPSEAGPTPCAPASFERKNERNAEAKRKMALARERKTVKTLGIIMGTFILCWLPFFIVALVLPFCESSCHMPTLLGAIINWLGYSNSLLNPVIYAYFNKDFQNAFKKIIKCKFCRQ

The target of data set [2] is T2, serotonin 5-HT2C receptors (Homo sapiens, UniProt P28335).
T2 sequence (P28335 33-458): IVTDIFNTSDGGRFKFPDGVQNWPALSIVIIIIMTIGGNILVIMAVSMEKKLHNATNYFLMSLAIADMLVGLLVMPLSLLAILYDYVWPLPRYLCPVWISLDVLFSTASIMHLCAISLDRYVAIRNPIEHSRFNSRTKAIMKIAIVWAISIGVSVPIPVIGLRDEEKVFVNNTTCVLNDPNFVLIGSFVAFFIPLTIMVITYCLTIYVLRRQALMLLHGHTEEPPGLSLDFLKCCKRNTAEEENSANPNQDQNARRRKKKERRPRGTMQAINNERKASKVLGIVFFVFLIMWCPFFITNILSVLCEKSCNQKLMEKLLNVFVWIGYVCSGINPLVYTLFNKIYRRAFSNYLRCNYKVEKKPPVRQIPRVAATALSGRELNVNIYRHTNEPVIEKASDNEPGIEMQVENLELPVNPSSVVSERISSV

The target in data set [3] is T3, noradrenaline α2A receptors (Homo sapiens, UniProt P08913).
T3 sequence (P08913 1-465): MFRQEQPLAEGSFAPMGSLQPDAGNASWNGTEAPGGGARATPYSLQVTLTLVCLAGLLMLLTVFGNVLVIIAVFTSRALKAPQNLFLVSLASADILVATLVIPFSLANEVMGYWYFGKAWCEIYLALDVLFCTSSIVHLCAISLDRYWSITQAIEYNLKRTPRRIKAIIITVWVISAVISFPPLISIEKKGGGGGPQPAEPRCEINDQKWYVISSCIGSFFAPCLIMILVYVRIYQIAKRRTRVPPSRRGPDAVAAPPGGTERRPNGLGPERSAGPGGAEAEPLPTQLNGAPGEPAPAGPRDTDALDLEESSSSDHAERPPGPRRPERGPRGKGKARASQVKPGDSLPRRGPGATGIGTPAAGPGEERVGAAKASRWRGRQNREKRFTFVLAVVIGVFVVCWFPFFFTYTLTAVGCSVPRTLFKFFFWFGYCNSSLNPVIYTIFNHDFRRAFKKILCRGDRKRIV

Data set [4] deals with noradrenaline α, receptors.
For data set [5] the following is noted: oral dosage forms.
The conditions of data set [6]: within 24 hours after treatment; sumatriptan-treated patients.

5-HT1Dβ receptors, sequence (P28222 whole entry): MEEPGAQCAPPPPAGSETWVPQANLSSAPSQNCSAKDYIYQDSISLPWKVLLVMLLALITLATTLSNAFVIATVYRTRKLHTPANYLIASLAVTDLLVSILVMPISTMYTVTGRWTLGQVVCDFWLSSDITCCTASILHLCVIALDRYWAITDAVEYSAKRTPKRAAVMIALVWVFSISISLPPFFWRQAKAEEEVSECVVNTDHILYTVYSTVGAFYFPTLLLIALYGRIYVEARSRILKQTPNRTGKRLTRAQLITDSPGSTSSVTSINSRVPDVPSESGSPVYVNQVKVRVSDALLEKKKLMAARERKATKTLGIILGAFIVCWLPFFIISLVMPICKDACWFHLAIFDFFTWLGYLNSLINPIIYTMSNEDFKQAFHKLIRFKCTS
dopamine D3 receptors, sequence (P35462 whole entry): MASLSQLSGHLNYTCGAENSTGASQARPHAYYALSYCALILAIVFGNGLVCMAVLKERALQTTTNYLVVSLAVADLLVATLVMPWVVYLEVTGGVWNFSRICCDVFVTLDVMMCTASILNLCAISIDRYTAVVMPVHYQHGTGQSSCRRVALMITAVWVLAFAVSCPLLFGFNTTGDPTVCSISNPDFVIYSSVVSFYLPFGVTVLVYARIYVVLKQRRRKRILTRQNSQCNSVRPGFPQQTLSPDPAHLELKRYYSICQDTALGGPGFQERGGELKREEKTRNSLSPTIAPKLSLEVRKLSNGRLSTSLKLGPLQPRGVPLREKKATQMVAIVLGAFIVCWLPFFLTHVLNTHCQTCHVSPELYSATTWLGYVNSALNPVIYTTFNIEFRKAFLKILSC
5-HT1Dα receptors, sequence (P28221 whole entry): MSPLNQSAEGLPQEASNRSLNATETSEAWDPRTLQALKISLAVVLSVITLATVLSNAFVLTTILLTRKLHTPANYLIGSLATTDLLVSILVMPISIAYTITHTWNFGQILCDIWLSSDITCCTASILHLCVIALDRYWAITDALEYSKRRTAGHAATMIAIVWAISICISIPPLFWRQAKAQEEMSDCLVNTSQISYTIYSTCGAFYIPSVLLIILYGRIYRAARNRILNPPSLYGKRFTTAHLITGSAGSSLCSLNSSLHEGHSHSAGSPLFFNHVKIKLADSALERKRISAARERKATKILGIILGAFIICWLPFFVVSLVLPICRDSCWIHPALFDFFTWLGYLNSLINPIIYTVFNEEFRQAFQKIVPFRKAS
dopamine D2L receptors, sequence (P14416 whole entry): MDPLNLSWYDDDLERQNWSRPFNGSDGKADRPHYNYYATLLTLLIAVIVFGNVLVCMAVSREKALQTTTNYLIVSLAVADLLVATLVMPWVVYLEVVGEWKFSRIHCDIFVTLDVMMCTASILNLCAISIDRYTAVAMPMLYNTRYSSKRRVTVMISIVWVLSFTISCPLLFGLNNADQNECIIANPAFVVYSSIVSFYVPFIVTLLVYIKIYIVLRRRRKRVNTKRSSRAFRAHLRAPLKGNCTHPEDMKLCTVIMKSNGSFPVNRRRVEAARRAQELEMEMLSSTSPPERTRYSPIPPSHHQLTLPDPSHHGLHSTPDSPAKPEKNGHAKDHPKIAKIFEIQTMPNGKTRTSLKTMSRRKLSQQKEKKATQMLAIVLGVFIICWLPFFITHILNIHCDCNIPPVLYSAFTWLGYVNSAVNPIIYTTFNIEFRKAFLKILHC

With `CN1C[C@H](C(=O)N[C@]2(C)O[C@@]3(O)[C@@H]4CCCN4C(=O)[C@H](Cc4ccccc4)N3C2=O)C[C@@H]2c3cccc4[nH]cc(c34)C[C@H]21` [DHE, Dihydroergotamine], the binding affinity result (on 5-HT1Dα receptors; on 5-HT1Dβ receptors; in data set [1]; in data set [2]; in [3]; in [4]) was “high affinity” each time. For the same compound, the binding affinity entry on dopamine D2L receptors and at dopamine D3 receptors was “high affinity” each time. Further, the “absorption through the gut” value in data set [5] was “poorly absorbed”.
Regarding `CNS(=O)(=O)Cc1ccc2[nH]cc(CCN(C)C)c2c1` [sumatriptan], the “patients with headache reoccurrence” value in [6] is 45%.
